Data reported in US12528802B2, “Heterocyclic compound” (Takeda Pharmaceutical Company Limited, priority 2019, dated 2026).

The molecules below were run against T1, glucosylceramide synthase (Homo sapiens, UniProt Q16739) (assay: Glucosylceramide synthase (GCS) enzyme assay, microsome fraction, C8 glucosylceramide quantified by Rapidfire MS/MS). Details: test compound 10 μM; 1.7 μM UDP-glucose, 3 μM C8 ceramide; room temperature 60 min.
T1 construct: made in house; host or cells: Expi293F cells (transient expression, pcDNA3.3-TOPO vector); microsome fraction used as enzyme source
T1 sequence (Q16739 1-394): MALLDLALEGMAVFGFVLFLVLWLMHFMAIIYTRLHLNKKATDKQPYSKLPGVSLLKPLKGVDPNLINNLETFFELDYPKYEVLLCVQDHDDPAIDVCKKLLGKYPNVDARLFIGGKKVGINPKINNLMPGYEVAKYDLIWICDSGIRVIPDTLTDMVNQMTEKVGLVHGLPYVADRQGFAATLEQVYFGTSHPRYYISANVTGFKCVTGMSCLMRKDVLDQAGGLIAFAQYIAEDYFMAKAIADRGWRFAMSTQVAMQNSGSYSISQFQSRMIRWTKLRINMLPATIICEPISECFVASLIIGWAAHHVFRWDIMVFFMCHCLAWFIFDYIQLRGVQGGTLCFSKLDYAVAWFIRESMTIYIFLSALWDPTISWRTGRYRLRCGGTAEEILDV
Type: biochemical
Protocol: Glucosylceramide Synthase (GCS) Assay
In enzyme assay, a microsome fraction obtained by transient expression by Expi293F™ cells (catalog number: A14527, Thermo Fisher Scientific) was used as a glucosylceramide synthase source. Liposomal C8 ceramide and UDP-glucose were used as substrates. […] After the enzymatic reaction, the analysis was performed with Rapidfire MS/MS (API-4000™, SCIEX), and C8 glucosylceramide was quantified to evaluate the inhibitory activity of the test compound against glucosylceramide synthase activity.
PcDNA3.3TOPO vector (catalog number: K830001, Thermo Fisher Scientific) into which the human GCS gene was inserted was introduced into Expi293F™ Cells (catalog number: A14527, Thermo Fisher Scientific) by using ExpiFectamine™ 293 Transfection Kit (catalog number: A14525, Thermo Fisher Scientific). The cultured cells were dissolved in D-PBS (catalog number: 048-29805, Fuji Film Wako Pure Chemical Industries, Ltd.) containing 1 mM PMSF, and the solution was allowed to stand on ice for 30 minutes, and then subjected to cell disruption (homogenized). The disruption solution was centrifuged at 10,000×g for 20 minutes at 4° C., and the obtained supernatant was centrifuged at 142,400×g for 60 minutes at 4° C. The obtained precipitate was resuspended in a D-PBS solution containing 1 mM PMSF, and homogenized again to prepare as a microsome fraction. Protein quantification was performed by the CBB method.
A 1 mM compound solution prepared by dissolving the test compound in DMSO was added to a 384-well plate by 100 nL so that the final concentration of the test compound was 10 μM. Next, a substrate solution consisting of 3.4 μM UDP-glucose and 6 μM C8 ceramide was added by 5 μL, followed by an enzyme solution consisting of a 25 μg/mL microsome fraction by 5 μL. C8 ceramide was prepared from liposomes composed of 15 mol % C8 ceramide and 85 mol % dioleoyl phosphatidylcholine (1,2-dioleoyl-sn-glycero-3-phosphocholine: DOPC). The enzymatic reaction was carried out in a solution consisting of 20 mM tris-hydrochloric acid buffer (pH 7.5), 0.01% Tween 20, 0.01% bovine serum albumin and 1 mM dithiothreitol at room temperature for 60 min. Then, a solution consisting of 75% isopropanol and 1% formic acid containing 0.25 μM N-Octadecanoyl-D35-psichosine (catalog number: 1914, Matreya) as an internal standard substance was added by 60 μL to stop the enzymatic reaction. 5 μL of the centrifugal supernatant of the obtained reaction product was analyzed by Rapidfire MS/MS (Agilent Technologies) using API-4000™ (SCIEX), and the C8 glucosylceramide was quantified to evaluate the inhibitory activity of the test compound against the glucosylceramide synthase activity. The inhibitory activity of the test compound was evaluated when the C8 glucosylceramide level in the enzyme-free solution was considered as 100% inhibitory and the enzyme activity of the DMSO group in the absence of the compound was considered as 0% inhibitory.

SMILES	GCS enzyme inhibitory rate at 10 μM (%) (% of control)
O=C1c2ccnc(-c3ccc(F)cc3OCC(F)(F)F)c2CN1c1ccc(C2(O)CCOC2)cc1 (single isomer, unassigned) [Example 263, (R or S)-4-[4-fluoro-2-(2,2,2-trifluoroethoxy)phenyl]-2-[4-(3-hydroxyoxolan-3-yl)phenyl]-2,3-dihydro-1H-pyrrolo[3,4-c]pyridin-1-one]	98%
O=C1c2ccnc(-c3ccc(F)cc3OCC(F)(F)F)c2CN1c1ccc(C2(O)CCOC2)cc1 (single isomer, unassigned) [Example 264, (R or S)-4-[4-fluoro-2-(2,2,2-trifluoroethoxy)phenyl]-2-[4-(3-hydroxyoxolan-3-yl)phenyl]-2,3-dihydro-1H-pyrrolo[3,4-c]pyridin-1-one]	98%
O=C1c2ccnc(-c3ccccc3OCC(F)(F)F)c2CN1c1ccc(C(O)C(F)(F)F)nc1 (single isomer, unassigned) [Example 277, (R or S)-4-[2-(2,2,2-trifluoroethoxy)phenyl]-2-[6-(2,2,2-trifluoro-1-hydroxyethyl)pyridin-3-yl]-2,3-dihydro-1H-pyrrolo[3,4-c]pyridin-1-one]	98%
O=C1c2ccnc(-c3ccc(F)cc3OCC(F)(F)F)c2CN1c1ccc(C(O)C(F)F)cc1 (single isomer, unassigned) [Example 279, (R or S)-2-[4-(2,2-difluoro-1-hydroxyethyl)phenyl]-4-[4-fluoro-2-(2,2,2-trifluoroethoxy)phenyl]-2,3-dihydro-1H-pyrrolo[3,4-c]pyridin-1-one]	99%
O=C1c2ccnc(-c3ccc(F)cc3OCC(F)(F)F)c2CN1c1ccc(C(O)C(F)(F)F)cc1 (single isomer, unassigned) [Example 286, (R or S)-4-[4-fluoro-2-(2,2,2-trifluoroethoxy)phenyl]-2-[4-(2,2,2-trifluoro-1-hydroxyethyl)phenyl]-2,3-dihydro-1H-pyrrolo [3,4-c]pyridin-1-one]	96%
O=C1c2ccnc(-c3ccc(F)cc3OCC(F)(F)F)c2CN1c1ccc(C2(O)CCOC2)cn1 (single isomer, unassigned) [Example 301, (R or S)-4-[4-fluoro-2-(2,2,2-trifluoroethoxy)phenyl]-2-[5-(3-hydroxyoxolan-3-yl)pyridin-2-yl]-2,3-dihydro-1H-pyrrolo [3,4-c]pyridin-1-one]	97%

Same assay, conditions: test compound 10 μM; 1.7 μM UDP-glucose, 3 μM C8 ceramide; room temperature 60 min; read-out: GCS enzyme inhibitory rate at 10 μM (%) (% of control)

SMILES	inhibition at 10 µM
CC(O)c1cc2c(c(-c3ccccc3OCC(F)F)n1)CN(c1ccc(OC(F)F)cc1)C2=O (racemic) [Example 358, rac-4-[2-(2,2-difluoroethoxy)phenyl]-2-[4-(difluoromethoxy)phenyl]-6-(1-hydroxyethyl)-2,3-dihydro-1H-pyrrolo[3,4-c]pyridin-1-one]	100%
Cc1cc2c(c(-c3ccccc3OCC(F)(F)F)n1)CN(c1ccc(OCC3(OC4CCCCO4)CC3)cc1)C2=O (racemic) [Example 374, rac-6-methyl-2-[4-({1-[(oxan-2-yl)oxy]cyclopropyl}methoxy)phenyl]-4-[2-(2,2,2-trifluoroethoxy)phenyl]-2,3-dihydro-1H-pyrrolo[3,4-c]pyridin-1-one]	100%
O=C1c2cc(C3CCCOC3)nc(-c3ccc(F)cc3OCC(F)(F)F)c2CN1c1ccc(F)cc1 (racemic) [Example 386, rac-2-(4-fluorophenyl)-4-[4-fluoro-2-(2,2,2-trifluoroethoxy)phenyl]-6-(oxan-3-yl)-2,3-dihydro-1H-pyrrolo[3,4-c]pyridin-1-one]	99%
CC(C)(O)c1ccc(N2Cc3c(cc(C4CCCOC4)nc3-c3ccccc3OCC(F)(F)F)C2=O)cc1 (racemic) [Example 387, rac-2-[4-(2-hydroxypropan-2-yl)phenyl]-6-(oxan-3-yl)-4-[2-(2,2,2-trifluoroethoxy)phenyl]-2,3-dihydro-1H-pyrrolo[3,4-c]pyridin-1-one]	101%
CC(C)(O)c1ccc(N2Cc3c(cc(C4CCOC4)nc3-c3ccccc3OCC(F)F)C2=O)cc1 (racemic) [Example 390, rac-4-[2-(2,2-difluoroethoxy)phenyl]-2-[4-(2-hydroxypropan-2-yl)phenyl]-6-(oxolan-3-yl)-2,3-dihydro-1H-pyrrolo[3,4-c]pyridin-1-one]	77%
O=C1c2ccnc(-c3ccc(F)cc3OCC(F)(F)F)c2CN1c1ccc(C2(O)CCOC2)cc1 (single isomer, unassigned) [Example 243, (R or S)-4-[4-fluoro-2-(2,2,2-trifluoroethoxy)phenyl]-2-[4-(3-hydroxyoxolan-3-yl)phenyl]-2,3-dihydro-1H-pyrrolo[3,4-c]pyridin-1-one]	97%
O=C1c2ccnc(-c3ccccc3OCC(F)(F)F)c2CN1c1ccc(C(O)C(F)(F)F)nc1 (single isomer, unassigned) [Example 276, (R or S)-4-[2-(2,2,2-trifluoroethoxy)phenyl]-2-[6-(2,2,2-trifluoro-1-hydroxyethyl)pyridin-3-yl]-2,3-dihydro-1H-pyrrolo[3,4-c]pyridin-1-one]	98%
O=C1c2ccnc(-c3ccc(F)cc3OCC(F)(F)F)c2CN1c1ccc(C(O)C(F)F)cc1 (single isomer, unassigned) [Example 278, (R or S)-2-[4-(2,2-difluoro-1-hydroxyethyl)phenyl]-4-[4-fluoro-2-(2,2,2-trifluoroethoxy)phenyl]-2,3-dihydro-1H-pyrrolo[3,4-c]pyridin-1-one]	99%
O=C1c2ccnc(-c3ccc(F)cc3OCC(F)(F)F)c2CN1c1ccc(C(O)C(F)(F)F)cc1 (single isomer, unassigned) [Example 285, (R or S)-4-[4-fluoro-2-(2,2,2-trifluoroethoxy)phenyl]-2-[4-(2,2,2-trifluoro-1-hydroxyethyl)phenyl]-2,3-dihydro-1H-pyrrolo [3,4-c]pyridin-1-one]	97%
O=C1c2ccnc(-c3ccc(F)cc3OCC(F)(F)F)c2CN1c1ccc(C2(O)CCOC2)cn1 (single isomer, unassigned) [Example 300, (R or S)-4-[4-fluoro-2-(2,2,2-trifluoroethoxy)phenyl]-2-[5-(3-hydroxyoxolan-3-yl)pyridin-2-yl]-2,3-dihydro-1H-pyrrolo [3,4-c]pyridin-1-one]	98%
CC(O)(c1ccc(N2Cc3c(ccnc3-c3ccc(F)cc3OCC(F)(F)F)C2=O)cc1)C(F)F (single isomer, unassigned) [Example 311, (R or S)-2-[4-(1,1-difluoro-2-hydroxypropan-2-yl)phenyl]-4-[4-fluoro-2-(2,2,2-trifluoroethoxy)phenyl]-2,3-dihydro-1H-pyrrolo[3,4-c]pyridin-1-one]	100%
CC(O)(c1ccc(N2Cc3c(ccnc3-c3ccccc3OCC(F)(F)F)C2=O)cc1)C(F)F (single isomer, unassigned) [Example 315, (R or S)-2-[4-(1,1-difluoro-2-hydroxypropan-2-yl)phenyl]-4-[2-(2,2,2-trifluoroethoxy)phenyl]-2,3-dihydro-1H-pyrrolo[3,4-c]pyridin-1-one]	100%
COc1ccccc1-c1nccc2c1CN(c1ccc(F)cc1)C2=O [Example 1, 2-(4-fluorophenyl)-4-(2-methoxyphenyl)-2,3-dihydro-1H-pyrrolo[3,4-c]pyridin-1-one]	78%
COc1ccccc1-c1nccc2c1CN(c1ccc(OC(F)(F)F)cc1)C2=O [Example 3, 4-(2-methoxyphenyl)-2-[4-(trifluoromethoxy)phenyl]-2,3-dihydro-1H-pyrrolo[3,4-c]pyridin-1-one]	98%
